Assay results taken from patent US12239643B2, “Therapeutic agent for inflammatory diseases, autoimmune diseases, fibrotic diseases, and cancer diseases” (MEIJI SEIKA PHARMA CO., LTD., priority 2018, dated 2025).
Like-named read-outs stand apart in the source and are kept apart here.

Key:
[1] = Hepatic metabolic stability (rat liver microsome method); type: in vitro ADME; conditions: rat liver microsomes 0.5 mg/mL, test substance 1 μM, NADPH 1 mM, 37° C., 30 minutes
Experimental: Metabolic stability in rat liver microsomes was evaluated by the following method. First, in 100 mM of potassium phosphate buffer solution (pH 7.4), liver microsomes (concentration at reaction: 0.5 mg/mL) and the test substance (concentration at reaction: 1 μM) were preincubated at 37° C. Five minutes later, 100 mM of potassium phosphate buffer (pH 7.4) solution of NADPH (concentration at reaction: 1 mM) was mixed thereto to start the reaction. After a predetermined time passed, acetonitrile was mixed to the reaction mixture to stop the reaction. Here, the reaction time was 0 and 30 minutes, and drug concentration measurement was performed for each time period using LC-MS. The % remaining value of the test compound was calculated from the value for 0 minutes and the value for 30 minutes, using the calculation formula below: % Remaining=(Value for 30 Minutes/Value for 0 Minutes)×100
The results of measuring the rat liver microsome metabolic Stability (% remaining for 30-minute reaction) for the test compound by the above method were evaluated in accordance with the following evaluated basis; A: a % remaining rate of 75% or more, B: 60% or more and less than 75%, C: 45% or more and less than 60%, and D: less than 45%.

PDE4 = assay: Evaluation of PDE4 inhibitory activity, scintillation proximity assay; type: biochemical; conditions: scintillation proximity assay
Method in brief: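 SPA with [2,8-3H]-cAMP and diluted PDE4 enzyme preparation in 50 mM Tris-HCl pH 7.4, 8.3 mM MgCl2, 1.7 mM EGTA, 3 mg/mL BSA, 120 min at room temperature. Product captured on ZnSO4-containing YSi-SPA beads, scintillation counted; IC50 from inhibition curves vs DMSO control and no-enzyme blank.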

[2] = read-out: PDE4 Inhibitory Activity (Evaluation 1; concentration for the inhibition rate of 50%)
[3] = class symbols of Evaluation 1, read-out: PDE4 Inhibitory Activity (concentration for the inhibition rate of 50%, IC50), Evaluation 1

## OCc1ccc(Oc2ccc(-c3nccs3)c3oc(N4CC5CC(C4)N5)nc23)nc1 [Example 341, (6-((2-(3,6-Diazabicyclo[3.1.1]heptan-3-yl)-7-(thiazol-2-yl)benzo[d]oxazol-4-yl)oxy)pyridin-3-yl)methanol]
[1]
  Residual ratio (% remaining for 30-minute reaction): A (A: a % remaining rate of 75% or more)
PDE4; [2]
  IC50: < 100 nM

## CC(C)(O)C(F)(F)Oc1ccc(-n2cccn2)c2oc(N3CC4CC(C3)N4)nc12 [Example 304, 1-((2-(3,6-Diazabicyclo[3.1.1]heptan-3-yl)-7-(1H-pyrazol-1-yl)benzo[d]oxazol-4-yl)oxy)-1,1-difluoro-2-methylpropan-2-ol]
[1]
  Residual ratio (% remaining for 30-minute reaction): A (A: a % remaining rate of 75% or more)
PDE4; [2]
  IC50: < 100 nM

## CS(=O)(=O)c1ccc(Oc2ccc(-c3nccs3)c3oc(N4CC5CC(C4)N5)nc23)nc1 [Example 352, 2-(3,6-Diazabicyclo[3.1.1]heptan-3-yl)-4-((5-(methylsulfonyl)pyridin-2-yl)oxy)-7-(thiazol-2-yl)benzo[d]oxazole]
[1]
  Residual ratio (% remaining for 30-minute reaction): A (A: a % remaining rate of 75% or more)
PDE4; [2]
  IC50: < 100 nM

## OC(c1cc(-c2nccs2)c2oc(N3CC4CCC(C3)N4)nc2c1)C(F)F (stereo not drawn) [Example 104, 1-(2-(3,8-Diazabicyclo[3.2.1]octan-3-yl)-7-(thiazol-2-yl)benzo[d]oxazol-5-yl)-2,2-difluoroethan-1-ol]
[1]
  Residual ratio (% remaining for 30-minute reaction): B (B: 60% or more and less than 75%)
PDE4; [3]
  IC50: < 100 nM

## Cc1cc(C(F)(F)F)c(Oc2ccc(-c3nccs3)c3oc(N4CC5CC(C4)N5)nc23)nn1 [Example 340, 2-(3,6-Diazabicyclo[3.1.1]heptan-3-yl)-4-((6-methyl-4-(trifluoromethyl)pyridazin-3-yl)oxy)-7-(thiazol-2-yl)benzo[d]oxazole]
[1]
  Residual ratio (% remaining for 30-minute reaction): A (A: a % remaining rate of 75% or more)
PDE4; [2]
  IC50: < 100 nM

## OCC(F)(F)Oc1ccc(-c2nccs2)c2oc(N3CC4CCC(C3)N4)nc12 [Example 404, 2-((2-(3,8-Diazabicyclo[3.2.1]octan-3-yl)-7-(thiazol-2-yl)benzo[d]oxazol-4-yl)oxy)-2,2-difluoroethan-1-ol]
[1]
  Residual ratio (% remaining for 30-minute reaction): B (B: 60% or more and less than 75%)
PDE4; [2]
  IC50: < 100 nM

## CC(C)(O)C(F)(F)Oc1c(Br)cc(-c2nccs2)c2oc(N3CC4CC(C3)N4)nc12 [Example 399, 1-((2-(3,6-Diazabicyclo[3.1.1]heptan-3-yl)-5-bromo-7-(thiazol-2-yl)benzo[d]oxazol-4-yl)oxy)-1,1-difluoro-2-methylpropan-2-ol]
[1]
  Residual ratio (% remaining for 30-minute reaction): B (B: 60% or more and less than 75%)
PDE4; [2]
  IC50: < 100 nM

## FC(F)(F)c1c(Cl)cc(-c2ccccn2)c2oc(N3CC4CCCC(C3)N4)nc12 [Example 12, 2-(3,9-Diazabicyclo[3.3.1]nonan-3-yl)-5-chloro-7-(pyridin-2-yl)-4-(trifluoromethyl)benzo[d]oxazole]
[1]
  Residual ratio (% remaining for 30-minute reaction): B (B: 60% or more and less than 75%)
PDE4; [3]
  IC50: < 100 nM

## CC(C)(O)C(F)(F)Oc1ccc(-c2ccccn2)c2oc(N3CC4CCC(C3)N4)nc12 [Example 317, 1-((2-(3,8-Diazabicyclo[3.2.1]octan-3-yl)-7-(pyridin-2-yl)benzo[d]oxazol-4-yl)oxy)-1,1-difluoro-2-methylpropan-2-ol]
[1]
  Residual ratio (% remaining for 30-minute reaction): A (A: a % remaining rate of 75% or more)
PDE4; [2]
  IC50: < 100 nM

## OCC(F)(F)Oc1c(Cl)cc(-c2nccs2)c2oc(N3CC4CC(C3)N4)nc12 [Example 401, 2-((2-(3,6-Diazabicyclo[3.1.1]heptan-3-yl)-5-chloro-7-(thiazol-2-yl)benzo[d]oxazol-4-yl)oxy)-2,2-difluoroethan-1-ol]
[1]
  Residual ratio (% remaining for 30-minute reaction): A (A: a % remaining rate of 75% or more)
PDE4; [2]
  IC50: < 100 nM

## O=S(=O)(CCO)c1ccc(-c2nccs2)c2oc(N3CC4CC(C3)N4)nc12 [Example 350, 2-((2-(3,6-Diazabicyclo[3.1.1]heptan-3-yl)-7-(thiazol-2-yl)benzo[d]oxazol-4-yl)sulfonyl)ethan-1-ol]
[1]
  Residual ratio (% remaining for 30-minute reaction): A (A: a % remaining rate of 75% or more)
PDE4; [2]
  IC50: < 100 nM

## Cc1csc(-c2ccc(OC(F)(F)C(C)(C)O)c3nc(N4CC5CCC(C4)N5)oc23)n1 [Example 318, 1-((2-(3,8-Diazabicyclo[3.2.1]octan-3-yl)-7-(4-methylthiazol-2-yl)benzo[d]oxazol-4-yl)oxy)-1,1-difluoro-2-methylpropan-2-ol]
[1]
  Residual ratio (% remaining for 30-minute reaction): B (B: 60% or more and less than 75%)
PDE4; [2]
  IC50: < 100 nM

## c1csc(-c2ccc(OC3CCOCC3)c3nc(N4CC5CCC(C4)N5)oc23)n1 [Example 254, 2-(3,8-Diazabicyclo[3.2.1]octan-3-yl)-4-((tetrahydro-2H-pyran-4-yl)oxy)-7-(thiazol-2-yl)benzo[d]oxazole]
[1]
  Residual ratio (% remaining for 30-minute reaction): A (A: a % remaining rate of 75% or more)
PDE4; [2]
  IC50: < 100 nM

## OCCSc1ccc(-c2nccs2)c2oc(N3CC4CC(C3)N4)nc12 [Example 348, 2-((2-(3,6-Diazabicyclo[3.1.1]heptan-3-yl)-7-(thiazol-2-yl)benzo[d]oxazol-4-yl)thio)ethan-1-ol]
[1]
  Residual ratio (% remaining for 30-minute reaction): B (B: 60% or more and less than 75%)
PDE4; [2]
  IC50: < 100 nM

## c1cnc(Oc2ccc(-c3nccs3)c3oc(N4CC5CC(C4)N5)nc23)nc1 [Example 338, 2-(3,6-Diazabicyclo[3.1.1]heptan-3-yl)-4-(pyrimidin-2-yloxy)-7-(thiazol-2-yl)benzo[d]oxazole]
[1]
  Residual ratio (% remaining for 30-minute reaction): A (A: a % remaining rate of 75% or more)
PDE4; [2]
  IC50: < 100 nM

## CC(C)(O)C(F)(F)Oc1ccc(-c2ncccn2)c2oc(N3CC4CCC(C3)N4)nc12 [Example 330, 1-((2-(3,8-Diazabicyclo[3.2.1]octan-3-yl)-7-(pyrimidin-2-yl)benzo[d]oxazol-4-yl)oxy)-1,1-difluoro-2-methylpropan-2-ol]
[1]
  Residual ratio (% remaining for 30-minute reaction): A (A: a % remaining rate of 75% or more)
PDE4; [2]
  IC50: < 100 nM

## O=C(c1ccc(-c2nccs2)c2oc(N3CC4CC(C3)N4)nc12)N1CCCC1 [Example 360, (2-(3,6-Diazabicyclo[3.1.1]heptan-3-yl)-7-(thiazol-2-yl)benzo[d]oxazol-4-yl) (pyrrolidin-1-yl)methanone]
[1]
  Residual ratio (% remaining for 30-minute reaction): A (A: a % remaining rate of 75% or more)
PDE4; [2]
  IC50: 100 to 1000 nM

## O=C(NCCO)C(F)(F)Oc1ccc(-c2nccs2)c2oc(N3CC4CC(C3)N4)nc12 [Example 411, 2-((2-(3,6-Diazabicyclo[3.1.1]heptan-3-yl)-7-(thiazol-2-yl)benzo[d]oxazol-4-yl)oxy)-2,2-difluoro-N-(2-hydroxyethyl)acetamide]
[1]
  Residual ratio (% remaining for 30-minute reaction): A (A: a % remaining rate of 75% or more)
PDE4; [2]
  IC50: < 100 nM

## c1csc(-c2ccc(OC3COC3)c3nc(N4CC5CC(C4)N5)oc23)n1 [Example 325, 2-(3,6-Diazabicyclo[3.1.1]heptan-3-yl)-4-(oxetan-3-yloxy)-7-(thiazol-2-yl)benzo[d]oxazole]
[1]
  Residual ratio (% remaining for 30-minute reaction): A (A: a % remaining rate of 75% or more)
PDE4; [2]
  IC50: < 100 nM

## CC(C)(O)C(F)(F)Oc1ccc(-n2nccn2)c2oc(N3CC4CCC(C3)N4)nc12 [Example 322, 1-((2-(3,8-Diazabicyclo[3.2.1]octan-3-yl)-7-(2H-1,2,3-triazol-2-yl)benzo[d]oxazol-4-yl)oxy)-1,1-difluoro-2-methylpropan-2-ol]
[1]
  Residual ratio (% remaining for 30-minute reaction): A (A: a % remaining rate of 75% or more)
PDE4; [2]
  IC50: < 100 nM

## c1cc(-c2nccs2)c2oc(N3CC4CC(C3)N4)nc2c1 [Example 382, 2-(3,6-Diazabicyclo[3.1.1]heptan-3-yl)-7-(thiazol-2-yl)benzo[d]oxazole]
[1]
  Residual ratio (% remaining for 30-minute reaction): B (B: 60% or more and less than 75%)
PDE4; [2]
  IC50: < 100 nM

## COCCNC(=O)c1ccc(-c2nccs2)c2oc(N3CC4CC(C3)N4)nc12 [Example 353, 2-(3,6-Diazabicyclo[3.1.1]heptan-3-yl)-N-(2-methoxyethyl)-7-(thiazol-2-yl)benzo[d]oxazole-4-carboxamide]
[1]
  Residual ratio (% remaining for 30-minute reaction): A (A: a % remaining rate of 75% or more)
PDE4; [2]
  IC50: < 100 nM

## O=S(=O)(NCCO)c1ccc(-c2nccs2)c2oc(N3CC4CC(C3)N4)nc12 [Example 385, 2-(3,6-Diazabicyclo[3.1.1]heptan-3-yl)-N-(2-hydroxyethyl)-7-(thiazol-2-yl)benzo[d]oxazole-4-sulfonamide]
[1]
  Residual ratio (% remaining for 30-minute reaction): A (A: a % remaining rate of 75% or more)
PDE4; [2]
  IC50: < 100 nM

## CN(CCO)C(=O)c1ccc(-c2nccs2)c2oc(N3CC4CC(C3)N4)nc12 [Example 356, 2-(3,6-Diazabicyclo[3.1.1]heptan-3-yl)-N-(2-hydroxyethyl)-N-methyl-7-(thiazol-2-yl)benzo[d]oxazole-4-carboxamide]
[1]
  Residual ratio (% remaining for 30-minute reaction): A (A: a % remaining rate of 75% or more)
PDE4; [2]
  IC50: 100 to 1000 nM
